Like-named read-outs stand apart in the source and are kept apart here.
Legend:
[1] = test system: glucose transporters; details: HL-60; read-out: IC50 (cell line); cited from earlier work
[2] = test system: glucose transporters; details: SW620; read-out: IC50 (cell line); cited from earlier work
[3] = test system: glucose transporters; details: CHO-K1; read-out: IC50 (cell line); cited from earlier work
[4] = test system: glucose transporters; details: A549; read-out: IC50 (cell line); cited from earlier work
[5] = test system: glucose transporters; details: RCC4; read-out: IC50 (cell line); cited from earlier work
[6] = test system: glucose transporters; details: DU145; read-out: IC50 (cell line); cited from earlier work
[7] = test system: glucose transporters; assay: 2-deoxy-D-[3H] glucose uptake in A549 cells; assay type: cell-based, human; details: A549 cells
Description: FIGS. 2A-2D. Inhibition of Glucose Transport by A18 and E11. (a) Inhibition of 3-O-methyl¬D-[3H] glucose uptake in A549 cells by A18. (b) Inhibition of 3-O-methyl-D-[3H] glucose uptake in A549 cells by E11. (c) Inhibition of 2-deoxy-D-[3H] glucose uptake in A549 […] cells by A18. (d) Inhibition of 2-deoxy-D-[3H] glucose uptake in A549 cells by E11.
FIGS. 16A-16B. Inhibition of Glucose Transport by A18 and E11. Cytochalasin B (10 μM), A18 (3 μM), E11 (3 μM) and DMSO control were used to treated A549 cells for 10 min (a) or 1 min (b), then glucose uptake in the treated cells was measured at 1, 3, 10 and 30 min after the addition of 2-dexoy-D-[^3H] glucose.
Direct action on glucose transporters was measured by monitoring uptake of 3H-labeled 3-O-methylglucose, which is transported by glucose transporters but not metabolized further, allowing the assessment of initial rate of glucose uptake. […] Initial uptake can also be assessed by measuring the uptake of 3H-labeled 2-deoxy-D-glucose, which gets into the cell through glucose transporters and is phosphorylated by hexokinase but cannot be metabolized further due to the lack of oxygen at the second position.

[8] = test system: glucose transporters; details: LNCaP; read-out: IC50 (cell line); cited from earlier work

O=c1c(-c2ccc(O)cc2)coc2cc(O)cc(O)c12 [Genistein]
IC50 [1]: ~12 µM

O=C(CCc1ccc(O)cc1)c1c(O)cc(O)cc1O [Phloretin]
IC50 [2]: > 10 µM

CCOC(=O)[C@@]12CCCCC/C=C\1N(C(=O)c1cccc3ccccc13)C(=O)[C@H]2CC(=O)N1CCN(C(=O)c2ccco2)CC1 [Compound 11]
IC50 [3]: 2000 nM

O=C(Oc1cccc(F)c1OC(=O)c1cccc(O)c1)c1cccc(O)c1 [WZB117]
IC50 [4]: ~500 nM

CC(C)(C)c1ccc(S(=O)(=O)NCc2ccc(C(=O)Nc3cccnc3)cc2)cc1 [STF-31]
IC50 [5]: ~1200 nM

CC(=O)CC(=O)Nc1ccc(Cl)c(C(F)(F)F)c1 [Fasentin]
IC50 [6]: ~80 µM

CCC(C)(C)C(=O)C(=O)N1CCCC[C@H]1C(=O)O[C@H](CCc1ccc(OC)c(OC)c1)c1cccc(OCC(=O)O)c1 [SLF, reference compound]
antagonism of inhibitory effects of A18 or E11 on 2-deoxy-D-glucose uptake by FKBP ligands [7]: significantly impaired the inhibitory activity of E11

CC(CN1C(=O)S/C(=C/c2ccc(O)c(C(F)(F)F)c2)C1=O)(CC(F)(F)F)CC(F)(F)F [Cpd30]
IC50 [8]: 2000 nM
